# Calls of active or inactive are those of the source. No cut-off for these calls is given here.
# Legend:
# [1] = tested on: CCRF-CEM; experiment: Cytotoxicity against human CCRF-CEM cells after 72 hrs by XTT assay; format: functional, cell-based
# [2] = tested on: CCRF-CEM; experiment: Selectivity ratio of IC50 for vinblastine-resistant human CCRF-CEM cells to IC50 for human CCRF-CEM cells; format: functional
# [3] = tested on: CCRF-CEM; experiment: Selectivity ratio of IC50 for taxol-resistant human CCRF-CEM cells to IC50 for human CCRF-CEM cells; format: functional
# [4] = tested on: HCT-116; experiment: Cytotoxicity against human HCT116 cells after 72 hrs by SRB assay; format: functional, cell-based; conditions: HCT-116, 72 h
# [5] = tested on: CCRF-CEM; experiment: Cytotoxicity against taxol-resistant human CCRF-CEM cells after 72 hrs by XTT assay; format: functional, cell-based
# [6] = tested on: MX1; experiment: Cytotoxicity against human MX1 cells after 72 hrs by SRB assay; format: functional, cell-based; conditions: MX1, 72 h
# [7] = tested on: CCRF-CEM; experiment: Cytotoxicity against vinblastine-resistant human CCRF-CEM cells after 72 hrs by XTT assay; format: functional, cell-based
# [8] = tested on: PC-3; experiment: Cytotoxicity against human PC3 cells after 72 hrs by alamar blue assay; format: functional, cell-based; conditions: PC-3, 72 h
# [9] = Cytotoxicity against human H1299 cells after 72 hrs by alamar blue assay; format: functional, cell-based; conditions: NCI-H1299, 72 h
# [10] = tested on: MCF7; experiment: Cytotoxicity against human MCF7 cells after 72 hrs by alamar blue assay; format: functional, cell-based; conditions: MCF7, 72 h
# [11] = Cytotoxicity against human CL1-5 cells after 72 hrs by alamar blue assay; format: functional, cell-based; conditions: CL1-5, 72 h
# [12] = Cytotoxicity against human CL1-0 cells after 72 hrs by alamar blue assay; format: functional, cell-based; conditions: CL1-0, 72 h
# [13] = tested on: Mus musculus; experiment: Toxicity in nu/nu nude mouse assessed as body weight loss at 100 mg/kg, iv administered as injection in Q2D x 5 schedule measured on day 16; format: organism-based; design: dose 100 mg/kg, route intravenous; conditions: in vivo
# [14] = tested on: MX1; experiment: Antitumor activity against human MX1 cells xenografted in nu/nu nude mouse assessed as complete tumor remission at 100 mg/kg, iv administered as injection in Q2D x 5 schedule measured on day 18; format: functional, organism-based; design: dose 100 mg/kg
# [15] = tested on: MX1; experiment: Antitumor activity against human MX1 cells xenografted in nu/nu nude mouse assessed as complete tumor remission at 100 mg/kg, iv administered as injection in Q2D x 5 schedule measured on day 70; format: functional, organism-based; design: dose 100 mg/kg
# [16] = tested on: Nucleic Acid; experiment: Binding affinity to pEGFP-N1 DNA assessed as formation of interstrand cross-links with DNA by alkaline gel shift assay; format: nucleic-acid assay
# [17] = tested on: Nucleic Acid; experiment: Binding affinity to DNA in human H1299 cells assessed as formation of DNA cross-links at 200 uM followed by irradiation by modified single cell gel electrophoresis comet assay; format: cell-based
Compound,IC50 [1],Ratio IC50 [2],Ratio IC50 [3],IC50 [4],IC50 [5],IC50 [6],IC50 [7],IC50 [8],IC50 [9],IC50 [10],IC50 [11],IC50 [12],Activity [13],Activity [14],Activity [15],Activity [16],Activity [17]
COc1cccc(-c2cc(NC(=O)NNc3ccc(N(CCCl)CCCl)cc3)c3cc(Cl)ccc3n2)c1,732 nM,2.91,3.08,13900 nM,2250 nM,14600 nM,2130 nM,–,–,–,–,–,–,–,–,–,–
O=C(NNc1ccc(N(CCCl)CCCl)cc1)Nc1cc(-c2ccccc2F)nc2ccc(N3CCCC3)cc12,152 nM,2.05,1.72,192 nM,261 nM,2260 nM,312 nM,954 nM,604 nM,1000 nM,511 nM,694 nM,–,–,–,–,–
COc1cccc(-c2cc(NC(=O)Nc3ccc(N(CCCl)CCCl)cc3)c3cc(OC)ccc3n2)c1,362 nM,1.53,1.62,3690 nM,588 nM,1830 nM,557 nM,5880 nM,5690 nM,3040 nM,3820 nM,4730 nM,13%,Active,Active,–,–
COc1cccc(-c2cc(NC(=O)NNc3ccc(N(CCCl)CCCl)cc3)c3cc(OC)ccc3n2)c1,552 nM,2.94,3.9,3440 nM,2150 nM,3460 nM,1620 nM,6450 nM,5990 nM,15400 nM,11000 nM,11700 nM,–,–,–,Active,–
COc1cccc(-c2cc(NC(=O)NNc3ccc(N(CCCl)CCCl)cc3)c3cc4c(cc3n2)OCO4)c1,209 nM,5.43,3.51,1370 nM,734 nM,749 nM,1130 nM,2980 nM,2050 nM,3350 nM,4850 nM,2870 nM,–,–,–,–,–
Cc1cc(NC(=O)Nc2ccc(N(CCCl)CCCl)cc2)c2cc3c(cc2n1)OCO3,279 nM,2.3,2.2,402 nM,605 nM,584 nM,652 nM,5960 nM,5440 nM,4910 nM,7270 nM,6230 nM,–,–,–,–,–
COc1cccc(-c2cc(NC(=O)Nc3ccc(N(CCCl)CCCl)cc3)c3cc(N4CCCC4)ccc3n2)c1,102000 nM,7.58,0.02,168000 nM,2230 nM,265000 nM,774000 nM,11100 nM,3810 nM,6930 nM,9490 nM,7090 nM,–,–,–,–,–
COc1cccc(-c2cc(NC(=O)NNc3ccc(N(CCCl)CCCl)cc3)c3cc(N4CCCC4)ccc3n2)c1,354 nM,2.35,1.6,643 nM,568 nM,1320 nM,833 nM,3340 nM,945 nM,5460 nM,5860 nM,2920 nM,–,–,–,–,–
Cc1cc(NC(=O)Nc2ccc(N(CCCl)CCCl)cc2)c2cc(N(C)C)ccc2n1,107 nM,2.3,2.9,300 nM,308 nM,184 nM,242 nM,2000 nM,714 nM,2130 nM,2520 nM,1730 nM,–,–,–,–,–
COc1cccc(-c2cc(NC(=O)Nc3ccc(N(CCCl)CCCl)cc3)c3cc4c(cc3n2)OCO4)c1,2820 nM,0.79,0.7,8870 nM,1960 nM,20600 nM,2220 nM,–,–,–,–,–,–,–,–,–,–
O=C(Nc1ccc(N(CCCl)CCCl)cc1)Nc1cc(-c2ccccc2F)nc2cc3c(cc12)OCO3,3090 nM,0.76,0.84,25400 nM,2610 nM,13100 nM,2350 nM,–,–,–,–,–,–,–,–,–,–
COc1ccc2nc(C)cc(NC(=O)Nc3ccc(N(CCCl)CCCl)cc3)c2c1,309 nM,1.5,1,830 nM,313 nM,645 nM,458 nM,3150 nM,1310 nM,5190 nM,5330 nM,5580 nM,–,–,–,–,–
COc1cccc(-c2cc(NC(=O)Nc3ccc(N(CCCl)CCCl)cc3)c3cc(Cl)ccc3n2)c1,1880 nM,0.55,0.59,4880 nM,1100 nM,2250 nM,1030 nM,–,–,–,–,–,–,–,–,–,–
CC(=O)O[C@H]1C(=O)[C@@]2(C)[C@H]([C@H](OC(=O)c3ccccc3)[C@]3(O)C[C@H](OC(=O)[C@H](O)[C@@H](NC(=O)c4ccccc4)c4ccccc4)C(C)=C1C3(C)C)[C@]1(OC(C)=O)CO[C@@H]1C[C@@H]2O [PACLITAXEL],–,980,330,–,–,–,–,–,–,–,–,–,–,–,–,–,–
O=C(NNc1ccc(N(CCCl)CCCl)cc1)Nc1cc(-c2ccccc2F)nc2cc3c(cc12)OCO3,1420 nM,2.23,2.09,6480 nM,2980 nM,42600 nM,3170 nM,4770 nM,491 nM,1820 nM,2650 nM,3470 nM,–,–,–,–,–
O=C(NNc1ccc(N(CCCl)CCCl)cc1)Nc1cc(-c2ccccc2)nc2cc3c(cc12)OCO3,258 nM,1.92,2.22,2020 nM,574 nM,1020 nM,495 nM,–,–,–,–,–,–,–,–,–,–
Cc1cc(NC(=O)Nc2ccc(N(CCCl)CCCl)cc2)c2cc(N3CCCC3)ccc2n1,9020 nM,1.43,1.87,13400 nM,16900 nM,16600 nM,12900 nM,–,–,–,–,–,–,–,–,–,–
O=C(Nc1ccc(N(CCCl)CCCl)cc1)Nc1cc(-c2ccccc2)nc2ccccc12,1690 nM,0.99,0.87,7790 nM,1460 nM,3470 nM,1660 nM,–,–,–,–,–,–,–,–,–,–
CC[C@]1(O)C[C@@H]2CN(CCc3c([nH]c4ccccc34)[C@@](C(=O)OC)(c3cc4c(cc3OC)N(C)[C@H]3[C@@](O)(C(=O)OC)[C@H](OC(C)=O)[C@]5(CC)C=CCN6CC[C@]43[C@@H]65)C2)C1 [VINBLASTINE],–,679.5,106.2,–,–,–,–,–,–,–,–,–,–,–,–,–,–
N[C@@H](Cc1ccc(N(CCCl)CCCl)cc1)C(=O)O,–,–,–,–,–,–,–,–,–,–,–,–,–,–,–,–,39.7%
O=C(NNc1ccc(N(CCCl)CCCl)cc1)Nc1cc(-c2ccccc2)nc2ccccc12,578 nM,2.11,1.57,1260 nM,908 nM,1780 nM,1220 nM,10500 nM,4380 nM,6240 nM,3010 nM,4070 nM,–,–,–,Active,–
O=C(Nc1ccc(N(CCCl)CCCl)cc1)Nc1cc(-c2ccccc2)nc2cc3c(cc12)OCO3,2250 nM,0.82,0.99,9920 nM,2230 nM,7410 nM,1840 nM,–,–,–,–,–,–,–,–,–,–
O=C(Nc1ccc(N(CCCl)CCCl)cc1)Nc1cc(-c2ccccc2F)nc2ccc(N3CCCC3)cc12,7650 nM,1.62,5.22,44200 nM,39900 nM,115000 nM,12400 nM,–,–,–,–,–,–,–,–,–,–
